{"source": "ChEMBL document CHEMBL4765237", "about": "“Structural optimization and structure-activity relationship studies of N-phenyl-7,8-dihydro-6H-pyrimido[5,4-b][1,4]oxazin-4-amine derivatives as a new class of inhibitors of RET and its drug resistance mutants” (Eur J Med Chem, 2018)", "key": {"[1]": {"assay": "Cmax in Sprague-Dawley rat at 10 mg/kg, po measured upto 24 hrs by LC-MS/MS analysis", "assay_type": "ADME, organism-based", "parameters": "route oral, dose 10 mg/kg, time <=24", "settings": "in vivo"}, "[2]": {"assay": "Tmax in Sprague-Dawley rat at 10 mg/kg, po measured upto 24 hrs by LC-MS/MS analysis", "assay_type": "ADME, organism-based", "settings": "in vivo"}, "[3]": {"assay": "Toxicity in NOD-SCID mouse xenografted with […] cells harboring RET C634Y mutant assessed as reduction in body weight at 10 to 30 mg/kg, po administered for 18 days and measured on day 18", "assay_type": "organism-based", "settings": "in vivo, 432 h, dose 10-30 mg/kg, time 18 day"}, "[4]": {"assay": "Growth inhibition of […] BaF3 cells harboring BCR abl mutant incubated for 3 days by MTT assay", "assay_type": "functional", "settings": "BaF3, 72 h; time 3 day"}, "[5]": {"assay": "Growth inhibition of human Ocut-2C cells incubated for 3 days by MTT assay", "assay_type": "functional", "settings": "OCUT2C, 72 h, time 3 day"}, "[6]": {"assay": "Growth inhibition of human C643 cells incubated for 3 days by MTT assay", "assay_type": "functional", "settings": "C643, 72 h, time 3 day"}, "BHT-101": {"test_system": "BHT-101", "assay": "Growth inhibition of human BHT-101 cells incubated for 3 days by MTT assay", "assay_type": "functional", "settings": "BHT-101, 72 h, time 3 day"}, "SGC-7901": {"test_system": "SGC-7901", "assay": "Growth inhibition of human SGC-7901 cells incubated for 3 days by MTT assay", "assay_type": "functional", "settings": "SGC-7901, 72 h, time 3 day"}, "HGC-27": {"test_system": "HGC-27", "assay": "Growth inhibition of human HGC-27 cells incubated for 3 days by MTT assay", "assay_type": "functional", "settings": "HGC-27, 72 h, time 3 day"}, "BaF3": {"test_system": "BaF3", "assay": "Growth inhibition of mouse BaF3 cells harboring RET M918T mutant incubated for 3 days by MTT assay", "assay_type": "functional", "settings": "BaF3, 72 h, time 3 day"}, "[7]": {"assay": "Growth inhibition of human TT cells incubated for 10 days by MTT assay", "assay_type": "functional", "settings": "240 h, time 10 day"}, "[8]": {"assay": "Growth inhibition of human H4 cells incubated for 3 days by MTT assay", "assay_type": "functional", "settings": "H4, 72 h, time 3 day"}, "L02": {"test_system": "L02", "assay": "Growth inhibition of human L02 cells incubated for 3 days by MTT assay", "assay_type": "functional", "settings": "L02, 72 h, time 3 day"}, "CDK4/Cyclin D3": {"target": "CDK4/Cyclin D3 (Homo sapiens, UniProt P11802)", "assay": "Inhibition of recombinant full length human CDK4/CyclinD3 using Rb fragment as substrate incubated for 40 mins in presence of [gamma-33ATP] by scintillation counting based radiometry assay", "assay_type": "protein-complex assay"}, "[9]": {"target": "Casein kinase I isoform delta (Homo sapiens, UniProt P48730)", "sequence (P48730 whole entry, the tested form may be a part, canonical isoform)": "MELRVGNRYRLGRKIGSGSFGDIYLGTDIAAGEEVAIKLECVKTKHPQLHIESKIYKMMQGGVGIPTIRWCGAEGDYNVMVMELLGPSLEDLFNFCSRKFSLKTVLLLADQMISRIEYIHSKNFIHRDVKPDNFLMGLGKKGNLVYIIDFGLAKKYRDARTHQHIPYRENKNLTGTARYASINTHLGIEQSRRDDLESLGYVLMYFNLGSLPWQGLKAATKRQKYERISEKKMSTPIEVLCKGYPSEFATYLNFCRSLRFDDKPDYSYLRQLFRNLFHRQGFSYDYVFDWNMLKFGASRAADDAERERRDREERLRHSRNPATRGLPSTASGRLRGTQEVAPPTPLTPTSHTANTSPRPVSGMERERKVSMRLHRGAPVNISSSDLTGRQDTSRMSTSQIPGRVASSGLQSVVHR", "assay": "Inhibition of recombinant human CK1delta (1 to 294 residues) using KRRRALS(p)VASLPGL as substrate incubated for 40 mins in presence of [gamma-33ATP] by scintillation counting based radiometry assay"}, "[10]": {"target": "Tyrosine-protein kinase HCK (Homo sapiens, UniProt P08631)", "assay": "Inhibition of human HCK (230 to 497 residues) using […] as substrate after 40 mins by [gamma-33ATP] radiometric assay"}, "[11]": {"target": "Platelet-derived growth factor receptor beta (Homo sapiens, UniProt P09619)", "sequence (P09619 whole entry)": "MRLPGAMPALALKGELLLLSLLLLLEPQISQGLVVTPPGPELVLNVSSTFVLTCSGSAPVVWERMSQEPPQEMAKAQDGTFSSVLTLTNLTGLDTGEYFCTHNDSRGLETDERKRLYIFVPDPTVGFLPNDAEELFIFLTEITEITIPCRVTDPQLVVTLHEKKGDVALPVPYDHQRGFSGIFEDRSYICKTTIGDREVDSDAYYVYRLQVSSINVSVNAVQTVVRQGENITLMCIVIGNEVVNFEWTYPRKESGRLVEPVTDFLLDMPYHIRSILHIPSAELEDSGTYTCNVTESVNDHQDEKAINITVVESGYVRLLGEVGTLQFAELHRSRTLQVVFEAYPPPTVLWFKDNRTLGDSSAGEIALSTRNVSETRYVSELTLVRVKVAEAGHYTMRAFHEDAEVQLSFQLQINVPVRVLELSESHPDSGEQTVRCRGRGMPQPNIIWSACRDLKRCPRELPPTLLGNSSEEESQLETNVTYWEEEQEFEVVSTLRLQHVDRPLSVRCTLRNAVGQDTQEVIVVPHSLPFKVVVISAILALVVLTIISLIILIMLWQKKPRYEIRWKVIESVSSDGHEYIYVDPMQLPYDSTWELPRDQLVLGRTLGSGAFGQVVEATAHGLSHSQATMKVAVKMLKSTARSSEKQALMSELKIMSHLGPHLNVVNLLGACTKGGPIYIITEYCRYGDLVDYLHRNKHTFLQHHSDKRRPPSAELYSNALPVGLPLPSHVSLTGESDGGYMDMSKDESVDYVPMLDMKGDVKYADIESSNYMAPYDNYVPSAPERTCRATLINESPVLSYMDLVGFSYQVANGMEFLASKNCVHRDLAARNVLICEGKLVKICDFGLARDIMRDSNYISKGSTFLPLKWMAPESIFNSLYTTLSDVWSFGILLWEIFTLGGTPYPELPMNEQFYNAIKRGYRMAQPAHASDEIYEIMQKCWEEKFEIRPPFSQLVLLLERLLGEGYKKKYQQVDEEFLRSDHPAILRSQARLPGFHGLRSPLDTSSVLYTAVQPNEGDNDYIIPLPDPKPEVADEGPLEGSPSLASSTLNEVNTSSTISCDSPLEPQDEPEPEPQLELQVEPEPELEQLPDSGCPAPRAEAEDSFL", "assay": "Inhibition of human PDGFRbeta (557 to end residues) using poly(Glu, Tyr) 4:1 as substrate measured after 40 mins in presence of [gamma33P]ATP by scintillation counting based radiometry assay"}, "[12]": {"target": "Platelet-derived growth factor receptor alpha (Homo sapiens, UniProt P16234)", "sequence (P16234 whole entry)": "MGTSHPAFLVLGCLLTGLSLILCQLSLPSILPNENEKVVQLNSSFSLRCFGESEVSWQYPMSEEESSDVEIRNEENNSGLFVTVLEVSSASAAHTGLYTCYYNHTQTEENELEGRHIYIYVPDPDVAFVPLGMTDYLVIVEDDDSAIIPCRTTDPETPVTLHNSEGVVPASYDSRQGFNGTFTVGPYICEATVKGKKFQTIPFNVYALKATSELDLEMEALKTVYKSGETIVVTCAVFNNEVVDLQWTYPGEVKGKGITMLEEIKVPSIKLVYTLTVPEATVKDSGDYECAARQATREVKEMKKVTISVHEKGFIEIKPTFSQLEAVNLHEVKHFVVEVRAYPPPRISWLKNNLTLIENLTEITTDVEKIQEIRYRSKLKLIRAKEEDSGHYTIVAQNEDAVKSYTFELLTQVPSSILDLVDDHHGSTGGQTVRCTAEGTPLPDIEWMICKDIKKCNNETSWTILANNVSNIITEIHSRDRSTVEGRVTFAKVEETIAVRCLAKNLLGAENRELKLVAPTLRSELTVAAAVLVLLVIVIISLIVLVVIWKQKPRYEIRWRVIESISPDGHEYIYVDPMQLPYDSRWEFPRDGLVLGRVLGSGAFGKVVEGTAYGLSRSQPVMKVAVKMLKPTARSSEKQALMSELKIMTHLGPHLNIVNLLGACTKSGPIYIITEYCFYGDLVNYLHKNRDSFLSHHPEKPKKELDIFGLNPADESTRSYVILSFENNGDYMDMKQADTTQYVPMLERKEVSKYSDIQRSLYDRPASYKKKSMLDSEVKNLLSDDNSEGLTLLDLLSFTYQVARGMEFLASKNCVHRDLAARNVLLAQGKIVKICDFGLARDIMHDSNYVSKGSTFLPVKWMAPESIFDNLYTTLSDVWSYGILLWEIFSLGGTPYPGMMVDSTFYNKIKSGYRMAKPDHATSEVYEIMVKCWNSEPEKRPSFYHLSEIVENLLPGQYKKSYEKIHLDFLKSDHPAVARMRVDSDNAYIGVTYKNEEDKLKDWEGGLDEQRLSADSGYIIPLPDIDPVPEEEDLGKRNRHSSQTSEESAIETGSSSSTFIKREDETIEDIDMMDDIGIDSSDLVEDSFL", "assay": "Inhibition of human PDGFRalpha (550 to end residues) using poly(Glu, Tyr) 4:1 as substrate measured after 40 mins in presence of [gamma33P]ATP by scintillation counting based radiometry assay"}, "[13]": {"target": "Mitogen-activated protein kinase 11 (Homo sapiens, UniProt Q15759)", "assay": "Inhibition of recombinant human full length SAPK2b using myelin basic protein as substrate incubated for 40 mins in presence of [gamma33P]ATP by scintillation counting based radiometry assay"}, "[14]": {"target": "NT-3 growth factor receptor (Homo sapiens, UniProt Q16288)", "assay": "Inhibition of recombinant human TRKC (510 to end residues) using GEEPLYWSFPAKKK as substrate incubated for 40 mins in presence of [gamma33P]ATP by scintillation counting based radiometry assay"}, "[15]": {"target": "Tyrosine-protein kinase Blk (Homo sapiens, UniProt P51451)", "sequence (P51451 whole entry)": "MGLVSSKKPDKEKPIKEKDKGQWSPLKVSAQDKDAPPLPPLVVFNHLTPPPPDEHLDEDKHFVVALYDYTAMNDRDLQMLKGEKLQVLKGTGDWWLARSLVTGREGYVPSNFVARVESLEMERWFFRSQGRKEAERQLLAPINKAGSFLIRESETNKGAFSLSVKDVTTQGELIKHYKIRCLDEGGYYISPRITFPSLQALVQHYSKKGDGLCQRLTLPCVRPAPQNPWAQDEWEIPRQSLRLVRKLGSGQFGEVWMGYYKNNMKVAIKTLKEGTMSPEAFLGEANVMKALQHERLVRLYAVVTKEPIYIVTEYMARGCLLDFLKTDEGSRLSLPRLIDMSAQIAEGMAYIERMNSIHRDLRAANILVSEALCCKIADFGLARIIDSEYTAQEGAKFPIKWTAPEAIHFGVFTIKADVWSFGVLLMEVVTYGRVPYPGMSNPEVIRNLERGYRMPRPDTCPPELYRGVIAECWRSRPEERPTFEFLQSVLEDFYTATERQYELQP", "assay": "Inhibition of recombinant full length human BLK using poly(Glu, Tyr) 4:1 as substrate incubated for 40 mins in presence of [gamma-33ATP] by scintillation counting based radiometry assay"}, "[16]": {"target": "Mast/stem cell growth factor receptor Kit (Homo sapiens, UniProt P10721)", "assay": "Inhibition of recombinant human C-Kit using poly(Glu, Tyr) 4:1 as substrate incubated for 40 mins in presence of [gamma-33ATP] by scintillation counting based radiometry assay"}, "Ephrin type-B receptor 2": {"target": "Ephrin type-B receptor 2 (Homo sapiens, UniProt P29323)", "sequence (P29323 whole entry)": "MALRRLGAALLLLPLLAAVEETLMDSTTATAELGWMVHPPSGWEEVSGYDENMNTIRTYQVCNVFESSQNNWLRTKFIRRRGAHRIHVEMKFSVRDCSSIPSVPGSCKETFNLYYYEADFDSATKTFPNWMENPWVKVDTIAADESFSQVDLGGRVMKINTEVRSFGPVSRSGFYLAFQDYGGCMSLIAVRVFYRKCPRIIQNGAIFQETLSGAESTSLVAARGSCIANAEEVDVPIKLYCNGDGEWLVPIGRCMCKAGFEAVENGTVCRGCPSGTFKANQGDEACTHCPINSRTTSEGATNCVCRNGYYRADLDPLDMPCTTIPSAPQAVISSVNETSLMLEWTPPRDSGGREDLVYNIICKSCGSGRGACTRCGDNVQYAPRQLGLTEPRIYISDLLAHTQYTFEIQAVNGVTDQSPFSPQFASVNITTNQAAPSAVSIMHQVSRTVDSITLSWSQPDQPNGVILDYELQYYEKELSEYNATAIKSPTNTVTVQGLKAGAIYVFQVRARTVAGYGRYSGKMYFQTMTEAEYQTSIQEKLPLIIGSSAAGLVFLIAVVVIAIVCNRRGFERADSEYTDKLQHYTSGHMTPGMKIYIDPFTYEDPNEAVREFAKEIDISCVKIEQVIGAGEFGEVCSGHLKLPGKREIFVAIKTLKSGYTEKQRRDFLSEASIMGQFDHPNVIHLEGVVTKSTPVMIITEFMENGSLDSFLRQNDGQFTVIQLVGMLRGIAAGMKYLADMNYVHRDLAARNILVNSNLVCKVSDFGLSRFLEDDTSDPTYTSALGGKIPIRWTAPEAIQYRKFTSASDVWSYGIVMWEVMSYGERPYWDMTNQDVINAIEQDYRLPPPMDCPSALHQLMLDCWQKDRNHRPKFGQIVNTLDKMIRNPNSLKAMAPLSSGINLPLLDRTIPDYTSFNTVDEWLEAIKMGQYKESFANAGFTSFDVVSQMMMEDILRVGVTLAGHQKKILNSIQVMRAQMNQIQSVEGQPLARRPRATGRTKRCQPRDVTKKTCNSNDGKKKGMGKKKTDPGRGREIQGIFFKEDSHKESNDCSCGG", "assay": "Inhibition of recombinant human EphB2 (560 to end residues) using poly(Glu, Tyr) 4:1 as substrate incubated for 40 mins in presence of [gamma-33ATP] by scintillation counting based radiometry assay"}, "[17]": {"target": "Receptor-type tyrosine-protein kinase FLT3 (Homo sapiens, UniProt P36888)", "assay": "Inhibition of recombinant human FLT3 (564 to end residues) using EAIYAAPFAKKK as substrate incubated for 40 mins in presence of [gamma-33ATP] by scintillation counting based radiometry assay"}, "[18]": {"target": "Homeodomain-interacting protein kinase 4 (Homo sapiens, UniProt Q8NE63)", "assay": "Inhibition of human HIPK4 using RRRFRPASPLRGPPK as substrate after 40 mins by [gamma-33ATP] radiometric assay"}, "[19]": {"target": "Tyrosine-protein kinase ITK/TSK (Homo sapiens, UniProt Q08881)", "assay": "Inhibition of human ITK (352 to 617 residues) using myelin basic protein as substrate after 40 mins by [gamma-33ATP] radiometric assay"}, "[20]": {"target": "MAP kinase-interacting serine/threonine-protein kinase 2 (Homo sapiens, UniProt Q9HBH9)", "assay": "Inhibition of recombinant human MNK2 using myelin basic protein as substrate incubated for 40 mins in presence of [gamma-33ATP by scintillation counting based radiometry assay"}, "[21]": {"target": "Tyrosine-protein kinase FRK (Homo sapiens, UniProt P42685)", "sequence (P42685 whole entry)": "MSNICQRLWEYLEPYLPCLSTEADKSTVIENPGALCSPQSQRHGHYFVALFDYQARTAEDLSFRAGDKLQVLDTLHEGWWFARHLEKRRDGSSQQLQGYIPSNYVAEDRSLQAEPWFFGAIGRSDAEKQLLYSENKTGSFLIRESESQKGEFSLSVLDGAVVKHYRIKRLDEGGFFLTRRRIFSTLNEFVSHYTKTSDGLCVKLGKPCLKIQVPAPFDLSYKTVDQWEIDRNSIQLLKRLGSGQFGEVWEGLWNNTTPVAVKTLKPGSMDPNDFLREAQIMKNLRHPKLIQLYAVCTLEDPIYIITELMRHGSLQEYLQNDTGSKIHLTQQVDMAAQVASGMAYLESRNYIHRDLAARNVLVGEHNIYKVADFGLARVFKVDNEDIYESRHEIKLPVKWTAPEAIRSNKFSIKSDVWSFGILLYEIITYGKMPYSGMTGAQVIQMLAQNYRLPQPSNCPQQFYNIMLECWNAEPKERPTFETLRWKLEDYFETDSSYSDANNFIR", "assay": "Inhibition of recombinant human PTK5 (218 to end residues) using GGEEEEYFELVKKKK as substrate incubated for 40 mins in presence of [gamma33P]ATP by scintillation counting based radiometry assay"}, "[22]": {"target": "Mitogen-activated protein kinase 12 (Homo sapiens, UniProt P53778)", "sequence (P53778 whole entry)": "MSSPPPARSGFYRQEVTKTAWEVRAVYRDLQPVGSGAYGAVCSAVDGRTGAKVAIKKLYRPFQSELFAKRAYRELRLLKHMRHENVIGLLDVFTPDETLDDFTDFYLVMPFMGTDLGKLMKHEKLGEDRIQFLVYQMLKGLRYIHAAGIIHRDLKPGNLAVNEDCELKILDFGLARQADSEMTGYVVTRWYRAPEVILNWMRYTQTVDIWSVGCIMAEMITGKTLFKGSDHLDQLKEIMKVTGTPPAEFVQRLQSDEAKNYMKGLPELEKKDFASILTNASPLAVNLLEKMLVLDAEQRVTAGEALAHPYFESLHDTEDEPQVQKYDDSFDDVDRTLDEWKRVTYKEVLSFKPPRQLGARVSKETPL", "assay": "Inhibition of recombinant human full length SAPK3 using myelin basic protein as substrate incubated for 40 mins in presence of [gamma33P]ATP by scintillation counting based radiometry assay"}, "[23]": {"target": "TRAF2 and NCK-interacting protein kinase (Homo sapiens, UniProt Q9UKE5)", "assay": "Inhibition of human TNIK (1 to 367 residues) using RLGRDKYKTLRQIRQ as substrate incubated for 40 mins in presence of [gamma33P]ATP by scintillation counting based radiometry assay"}, "[24]": {"target": "Proto-oncogene tyrosine-protein kinase receptor Ret (Homo sapiens, UniProt P07949, V804M)"}, "Mus musculus": {"species": "Mus musculus", "settings": "NOD-SCID, dose 30.0 mg/kg, time 18.0 day"}}, "note": "The source made the active and inactive calls. The calls are words filed in the database; no cut-off is given here."}
{"smiles": "CC(C)(C)c1cc(NC(=O)Nc2ccc(Nc3ncnc4c3OCCCN4)cc2)no1", "values": [{"measurement": "Cmax", "setting": "[1]", "result": 263, "unit": "µg/mL"}, {"measurement": "Tmax", "setting": "[2]", "result": 15, "unit": "min"}, {"measurement": "Activity", "setting": "[3]", "result": "Non-Toxic"}, {"measurement": "GI50", "setting": "[4]", "result": "> 10000", "unit": "nM"}, {"measurement": "GI50", "setting": "[5]", "result": "> 10000", "unit": "nM"}, {"measurement": "GI50", "setting": "[6]", "result": "> 10000", "unit": "nM"}, {"measurement": "GI50", "setting": "BHT-101", "result": "> 10000", "unit": "nM"}, {"measurement": "GI50", "setting": "SGC-7901", "result": 7280, "unit": "nM"}, {"measurement": "GI50", "setting": "HGC-27", "result": 5760, "unit": "nM"}, {"measurement": "GI50", "setting": "BaF3", "result": 870, "unit": "nM"}, {"measurement": "GI50", "setting": "[7]", "result": 65, "unit": "nM"}, {"measurement": "GI50", "setting": "[8]", "result": "> 10000", "unit": "nM"}, {"measurement": "GI50", "setting": "L02", "result": "> 10000", "unit": "nM"}, {"measurement": "IC50", "setting": "CDK4/Cyclin D3", "result": 1110, "unit": "nM"}, {"measurement": "IC50", "setting": "[9]", "result": 509, "unit": "nM"}, {"measurement": "IC50", "setting": "[10]", "result": 87, "unit": "nM"}, {"measurement": "IC50", "setting": "[11]", "result": 686, "unit": "nM"}, {"measurement": "IC50", "setting": "[12]", "result": 262, "unit": "nM"}, {"measurement": "IC50", "setting": "[13]", "result": 50, "unit": "nM"}, {"measurement": "IC50", "setting": "[14]", "result": 20, "unit": "nM"}, {"measurement": "IC50", "setting": "[15]", "result": 1910, "unit": "nM"}, {"measurement": "IC50", "setting": "[16]", "result": 218, "unit": "nM"}, {"measurement": "IC50", "setting": "Ephrin type-B receptor 2", "result": 1090, "unit": "nM"}, {"measurement": "IC50", "setting": "[17]", "result": 13, "unit": "nM"}, {"measurement": "IC50", "setting": "[18]", "result": 127, "unit": "nM"}, {"measurement": "IC50", "setting": "[19]", "result": 338, "unit": "nM"}, {"measurement": "IC50", "setting": "[20]", "result": 136, "unit": "nM"}, {"measurement": "IC50", "setting": "[21]", "result": 51, "unit": "nM"}, {"measurement": "IC50", "setting": "[22]", "result": 199, "unit": "nM"}, {"measurement": "IC50", "setting": "[23]", "result": 221, "unit": "nM"}, {"measurement": "IC50", "setting": "[24]", "result": 15, "unit": "nM"}, {"measurement": "inhibition", "setting": "Mus musculus", "result": "Active"}]}
